The source made the active and inactive calls.
Tests used:
Assay type in all cases: functional
[1] = target: T1, Replicative DNA helicase DnaB (Mycobacterium tuberculosis, UniProt P9WMR3); assay: DnaB intein splicing inhibitors, dose response, biochemical, cell-free fluorescence (AID 449749)
T1 sequence (P9WMR3 whole entry): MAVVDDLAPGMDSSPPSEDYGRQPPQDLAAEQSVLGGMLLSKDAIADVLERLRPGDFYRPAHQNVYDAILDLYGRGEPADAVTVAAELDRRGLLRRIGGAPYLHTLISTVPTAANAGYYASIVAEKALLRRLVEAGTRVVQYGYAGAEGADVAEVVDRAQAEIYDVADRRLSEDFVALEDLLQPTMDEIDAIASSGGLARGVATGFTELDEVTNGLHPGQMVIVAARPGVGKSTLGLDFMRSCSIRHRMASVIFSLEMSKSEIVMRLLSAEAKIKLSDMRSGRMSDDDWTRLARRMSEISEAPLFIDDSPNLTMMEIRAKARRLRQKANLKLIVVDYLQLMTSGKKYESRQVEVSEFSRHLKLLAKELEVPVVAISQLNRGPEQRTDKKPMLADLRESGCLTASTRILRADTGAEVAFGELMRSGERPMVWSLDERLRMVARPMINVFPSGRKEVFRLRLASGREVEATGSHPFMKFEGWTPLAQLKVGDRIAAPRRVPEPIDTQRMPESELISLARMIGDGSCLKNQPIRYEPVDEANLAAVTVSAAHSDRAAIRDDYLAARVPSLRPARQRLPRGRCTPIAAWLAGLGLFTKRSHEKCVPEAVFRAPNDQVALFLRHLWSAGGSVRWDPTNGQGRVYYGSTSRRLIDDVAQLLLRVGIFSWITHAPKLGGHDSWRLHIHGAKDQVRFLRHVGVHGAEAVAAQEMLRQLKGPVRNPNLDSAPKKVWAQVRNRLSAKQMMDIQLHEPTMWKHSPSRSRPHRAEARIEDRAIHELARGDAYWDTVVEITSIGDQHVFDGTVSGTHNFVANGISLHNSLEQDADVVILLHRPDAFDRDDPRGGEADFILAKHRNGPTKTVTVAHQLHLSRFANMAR

[2] = target: T2, Apoptotic protease-activating factor 1 (Homo sapiens, UniProt O14727)
T2 sequence (O14727 whole entry): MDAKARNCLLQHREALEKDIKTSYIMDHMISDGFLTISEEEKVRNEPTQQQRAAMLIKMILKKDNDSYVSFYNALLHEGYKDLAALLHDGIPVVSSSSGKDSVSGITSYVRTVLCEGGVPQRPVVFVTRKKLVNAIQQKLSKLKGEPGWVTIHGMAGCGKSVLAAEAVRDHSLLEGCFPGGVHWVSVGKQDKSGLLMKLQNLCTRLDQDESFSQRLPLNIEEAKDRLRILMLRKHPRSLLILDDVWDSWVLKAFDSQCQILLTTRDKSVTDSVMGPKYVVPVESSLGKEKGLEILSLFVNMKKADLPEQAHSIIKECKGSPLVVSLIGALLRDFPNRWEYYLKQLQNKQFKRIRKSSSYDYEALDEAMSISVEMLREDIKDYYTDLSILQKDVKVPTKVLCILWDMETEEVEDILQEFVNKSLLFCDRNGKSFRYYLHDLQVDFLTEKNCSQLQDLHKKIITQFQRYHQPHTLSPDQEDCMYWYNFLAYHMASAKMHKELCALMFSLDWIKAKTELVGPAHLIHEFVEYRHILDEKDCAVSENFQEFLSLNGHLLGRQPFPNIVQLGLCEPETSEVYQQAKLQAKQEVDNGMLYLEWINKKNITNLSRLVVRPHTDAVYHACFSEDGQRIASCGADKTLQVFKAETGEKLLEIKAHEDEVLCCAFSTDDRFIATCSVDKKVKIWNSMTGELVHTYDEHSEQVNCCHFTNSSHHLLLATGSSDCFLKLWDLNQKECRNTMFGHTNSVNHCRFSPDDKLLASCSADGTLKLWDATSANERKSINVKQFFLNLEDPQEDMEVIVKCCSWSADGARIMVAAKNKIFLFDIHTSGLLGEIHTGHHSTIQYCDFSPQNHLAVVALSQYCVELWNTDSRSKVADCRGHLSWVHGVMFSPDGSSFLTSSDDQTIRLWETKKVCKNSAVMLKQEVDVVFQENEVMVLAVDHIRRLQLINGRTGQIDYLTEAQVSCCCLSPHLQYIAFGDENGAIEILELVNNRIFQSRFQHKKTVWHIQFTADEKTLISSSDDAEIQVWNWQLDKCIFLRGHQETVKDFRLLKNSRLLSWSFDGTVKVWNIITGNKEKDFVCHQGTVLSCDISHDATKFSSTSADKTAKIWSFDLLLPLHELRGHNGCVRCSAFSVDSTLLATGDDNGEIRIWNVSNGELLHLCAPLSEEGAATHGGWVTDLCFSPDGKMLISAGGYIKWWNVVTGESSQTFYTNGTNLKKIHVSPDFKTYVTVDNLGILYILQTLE

Protein RecA = target: T3, Protein RecA (Mycobacterium tuberculosis, UniProt P9WHJ3); assay: Fluorescence Cell-Free Homogeneous Dose Retest to Identify Inhibitors of RecA-Intein Splicing Activity. [Related pubchem assays (depositor defined):AID2097, AID2223, AID489010, AID492950]
T3 sequence (P9WHJ3 whole entry): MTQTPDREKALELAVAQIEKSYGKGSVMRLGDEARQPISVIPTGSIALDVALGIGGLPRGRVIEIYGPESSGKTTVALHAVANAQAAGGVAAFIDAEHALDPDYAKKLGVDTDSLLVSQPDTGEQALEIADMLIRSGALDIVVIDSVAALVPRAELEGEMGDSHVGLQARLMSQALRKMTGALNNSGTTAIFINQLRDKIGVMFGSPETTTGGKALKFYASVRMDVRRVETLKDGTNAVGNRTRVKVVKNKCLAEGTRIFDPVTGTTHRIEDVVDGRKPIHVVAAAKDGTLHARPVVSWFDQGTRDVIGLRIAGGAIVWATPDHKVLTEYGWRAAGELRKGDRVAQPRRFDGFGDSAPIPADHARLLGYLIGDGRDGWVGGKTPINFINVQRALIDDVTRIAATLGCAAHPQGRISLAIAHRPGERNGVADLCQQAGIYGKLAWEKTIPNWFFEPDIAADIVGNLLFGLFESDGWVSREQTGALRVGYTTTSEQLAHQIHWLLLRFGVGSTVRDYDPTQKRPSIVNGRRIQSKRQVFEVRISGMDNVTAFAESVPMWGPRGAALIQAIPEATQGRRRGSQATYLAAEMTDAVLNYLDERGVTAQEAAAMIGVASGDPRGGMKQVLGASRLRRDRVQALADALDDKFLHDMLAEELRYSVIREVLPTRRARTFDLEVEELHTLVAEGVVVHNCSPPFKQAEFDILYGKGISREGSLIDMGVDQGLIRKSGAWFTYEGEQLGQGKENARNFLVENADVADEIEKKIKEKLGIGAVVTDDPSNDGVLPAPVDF

Row | Structure (SMILES) | AC50 [1] | IC50 [2] | EC50 (Protein RecA)
1 | Cc1ccc(C(=O)NC2(O)C(=O)c3ccccc3C2=O)cc1C | 6.24 µM (active) | 5.13 µM (active) | 15.9 µM (active)
2 | O=[N+]([O-])c1c(Nc2ccccn2)cc(Cl)c2nonc12 | 1.79 µM (active) |  | 1.02 µM (active)
3 | CC[C@@H](C)[C@H](CNC)NC[C@@H](Cc1cccc2ccccc12)NCCc1cccc(C(F)(F)F)c1 |  | 44.1 µM (active) | 
4 | Cc1ccc(S(=O)(=O)/N=C2\C=C(Nc3cccc(C(=O)O)c3)C(=O)c3ccccc32)cc1 | 0.516 µM (active) | 7.32 µM (active) | 0.266 µM (active)

Source: ChEMBL document CHEMBL1201862, “PubChem BioAssay data set” (2004)
